Experiments:
GM3 synthase = assay: Effect of shRNA expressing retrovirus on GM3 synthase activity in RAW264.7 strain; type: cell-based; conditions: crude enzyme from retrovirus-infected RAW264.7; uninfected RAW264.7 = 1
Description: RAW264.7 strain purchased from ATCC (Raschke W C, et al., Cell, Vol. 15, pp. 261-267, 1978) was suspended in 10% FBS-DMEM culture medium to be 1×10^5 cells/ml, and was seeded on 12-well plate at 1 ml/well. After overnight incubation at 37° C. in the presence of 5% CO2, retrovirus, which expressed sequences for shRNA (short hairpin RNA), SHI (SEQ ID NO: 5) or SH3 (SEQ ID NO: 6), was infected to RAW264.7 strain. After overnight culture, the medium was replaced with 10% FBS-DMEM culture medium and the cells were cultured to confluent state. Using these cells, in accordance with the method in EXAMPLE 4, crude enzyme was prepared to assay GM3 synthase activity. Based on the value of the enzyme activity from RAW264.7 strain as 1 (one), the value from the virus-infected cells was calculated as relative value.

RAW264.7 strain = assay: Effect of GM3 synthase knock-down on cholesterol efflux from RAW264.7 strain; type: cell-based; conditions: [3H] cholesterol efflux to Apolipoprotein A1 20 μg/ml, 6 hours; uninfected RAW264.7 = 1
Description: RAW264.7 strain infected with the retrovirus that expresses shRNA targeting GM3 synthase was suspended in 10% FBS-DMEM culture medium to be 1.5-2×10^6 cells/ml and was seeded on 12-well plate at 1 mL/well. After overnight culture at 37° C. in the presence of 5% CO2, the cells were washed with PBS. Then, after adding 1% FBS-DMEM culture medium, which contained [^3H] cholesterol-labeled βVLDL (final concentration: 150 μg of total cholesterol/ml), the cells were cultured for overnight. The cells were washed twice with 0.2% BSA-PBS and further washed with PBS. After replacing the medium with 0.1% BSA-DMEM culture medium, the cells were cultivated for one day. After replacing 20 μg/ml of Apolipoprotein A1 containing 0.1% BSA-DMEM culture medium, the cells were cultured for 6 hours. Cultured supernatant was collected, and radioactivity of the supernatant, from which cell debris was removed by centrifugation, was measured with the liquid scintillation counter. […] After incubation at 37° C. for overnight, radioactivity of the cell lysate was measured with the liquid scintillation counter. A ratio of the radioactivity of the culture supernatant to the summation of the radioactivity of the culture supernatant and the cell lysate was calculated. […] Based on the value from RAW264.7 strain as 1 (one), the value from the virus-infected cells was calculated as relative value.

mouse GM3 synthase = assay: Effect of IFN-γ on expression of mouse GM3 synthase in mouse peritoneal macrophage cells (TaqMan PCR); type: cell-based; conditions: 24 hours, GAPDH internal standard, ΔΔCt, without IFN-γ = 1
Description: In accordance with the method by Hakamada et al. [Jikken-igaku (Experimental Medicine), Supplementary Volume, Vol. 14, No. 12, “Junnkan Kenkyu Protocol (Protocol for study on circulation)”, pp. 49-52, 1996], from C57BL/6j mouse after the intraperitoneal injection of thioglycolate, peritoneal macrophage was prepared. The cells were suspended in 10% FBS-DMEM culture medium to be 1.5-2×10^6 cells/mL, and were seeded on 12-well plate at 1 mL/well. After overnight culture at 37° C. in the presence of 5% CO2, the cells were washed with PBS. The 1% FBS-DMEM culture medium containing mouse recombinant IFN-γ at prescribed concentration was added to the cells, and cultivation was performed for 24 hours.
After washing the cells once with PBS, using RNeasy Mini Kit (QIAGEN) total RNA was prepared. Subsequently, using TaqMan Reverse Transcription Reagents (Applied Biosystems) cDNA was prepared. By TaqMan PCR method Using TaqMan Universal PCR Master Mix (Applied Biosystems), the expression level of GM3 synthase was quantified. As TaqMan probe and primers for mouse GM3 synthase, Assays-on-Demand (Mm00488232_ml) supplied from Applied Biosystems was used.
(§1) In quantification, an expression level of GAPDH was used as internal standard. By ΔΔCt method, relative value was calculated based on the conditions without treatment of IFN-γ as 1 (one).

human GM3 synthase [1] = assay: GM3 synthase inhibitor screening (2): Phospholipid FlashPlate, CMP-[14C] sialic acid; type: biochemical; conditions: without CMP = 1
Description: (§2) The cell line stably expressing human GM3 synthase, which was established by transducing human GM3 synthase gene into RAW264.7 strain purchased from ATCC (Raschke W C, et al., Cell, Vol. 15, pp. 261-267, 1978) with retrovirus vector, was cultured in 10% FBS-DMEM culture medium. After culturing to confluent state, the cells were washed once with PBS and harvested. After weighing wet cells, the cells were suspended in 3 (three) volumes of buffer solution (15 mM sodium cacodilate (pH6.5), 5% glycerol). By ultrasonication, the cells were disrupted, and the supernatant, of which cell debris was excluded by centrifugation, was used as a crude enzyme solution. Protein concentration of the crude enzyme solution was determined using BCA protein assay kit(BIO RAD, Inc.).
Coating of lactosylceramide, the substrate for GM3 synthase to Phospholipid FlashPlate (PerkinElmer, Inc.) was carried out by the method as described below. 200 μM lactosylceramide-reaction buffer solution consisting of 100 mM sodium cacodylate (pH6.5) and 10 mM MgCl2 was dispensed on the plate at 200 μl/well and followed by standing at room temperature for overnight. After washing the plate once with PBS, 30 μM lactosylceramide-reaction buffer solution was dispensed at 70 μl/well.
Ten microliter of the crude enzyme solution prepared by the procedure in EXAMPLE 4, 10 μl of CMP solution and 10 μl of 500 μM CMP-[^14C] sialic acid (Amersham; 5×10^4 cpm/well) were admixed and incubated at 37° C. for 3 (three) hours. Radioactivity was measured by Topcount (PerkinElmer, Inc.).
A well, in which buffer solution for cell suspension was added instead of the crude enzyme was used as a blank. A value obtained by subtract the cpm value of blank well from the cpm value of sample well was used as a value for enzyme activity.
Relative value was calculated based on the conditions without treatment of CMP as 1 (one).

human GM3 synthase [2] = assay: GM3 synthase inhibitor screening (1): BODIPY-lactosylceramide, HPTLC fluorescence; type: biochemical; conditions: 73 without CMP
Description: as §2
BODIPY-lactosylceramide (Molecular Probes, Inc.) in chloroform solution was dried in Eppendorf tube under nitrogen flow. 4× reaction buffer solution consisting of 400 mM sodium cacodylate (pH6.5), 1.6% Triton X-100, 40 mM MgCl2 and 8 mM 2,3 dehydro-2-deoxy-N-acetylneuraminic acid was added to the tube. After vortexing, it was sufficiently dissolved by ultrasonication for 20 seconds in sonicator bath and was used as a substrate solution.
Ten μl of substrate solution, 10 μl of 800 μM CMP-sialic acid, 10 μl of crude enzyme solution and 10 μl of sample were admixed and followed by incubating at 37° C. for one hour. As a sample, cytidine mono phosphate (CMP), wherein the inhibitory effect to GM3 synthase activity is reported, was used (Biochem. Biophys. Res. Commun., Vol. 193, pp. 585-590, 1993). One milliliter of chloroform/methanol mixture (2:1) was added to the reaction mixture to terminate the reaction. After mixing, ultrasonication was done for 30 minutes in sonicator bath. Supernatant was recovered by centrifugation at 15,000 rpm for 5 minutes. Pellet was further washed with 200 μl of chloroform/methanol mixture (2:1) and recovered its supernatant by centrifugation at 15,000 rpm for 5 minutes. Collected supernatant was dried under nitrogen flow, and residue was re-suspended in 50 μl of chloroform/methanol mixture (2:1). Twenty μl of the supernatant isolated by centrifugation was spotted on HPTLC (Merck, Inc.) and was developed with solvent system consisting of chloroform/methanol/0.2% CaCl2 aqueous solution (50:45:10). After development, fluorescent intensity was measured with LAS-1000 (Fuji Film, Inc.). Fluorescent intensity of both the substrate, BODIPY-lactosylceramide and the product, BODIPY-GM3 was measured, respectively to calculate a ratio of GM3 produced to lactosylceramide added. The activity was calculated as an amount of GM3 (nmol) produced/hour/mg of protein in the crude enzyme solution.
GM3 synthase activity(nmol/mg/hr)=BODIPY-GM3(AU)/(BODIPY-lactosylceramide(AU)+BODIPY-GM3(AU))×10 nmol×1/(protein weight (mg)×reaction time(hr))
AU means a numerical value determined with LAS-1000.

human GM3 synthase [3] = assay: Effect of IFN-γ on expression of human GM3 synthase in THP-1 cells (TaqMan PCR); type: cell-based; conditions: 24 hours, THP-1 macrophage-like cells, without IFN-γ = 1
Description: THP-1 cells suspended in RPMI-1640 culture medium containing phorbol 12-myristeate 13-acetate (final concentration: […]), in which 10% FBS, 25 mM HEPES and Penicillin/Streptomycin were comprised, were seeded on 24-well plate at 1.0×10^6 cells/well and treated, for 3 (three) days to differentiate into macrophage-like cells. After washing the cells with PBS, RPMI-1640 culture medium containing human recombinant IFN-γ at a prescribed concentration was added to the cells. Subsequently, the cells were cultured for 24 hours.
As TaqMan probe and primers for human GM3 synthase, Assays-on-Demand (Hs00187405 ml) supplied from Applied Biosystems was used.
as §1

Molecule: SH1: retrovirus expressing shRNA (short hairpin RNA) sequence SEQ ID NO: 5 targeting GM3 synthase (GAAGACCCAGCTTGTTAATGTGTGCTGTCCATTAACAAGCTGGGTCTTCTTTTT)
- GM3 synthase activity (relative value) (GM3 synthase): 0.3
- cholesterol transporting activity (relative value) (RAW264.7 strain): 1.3

Molecule: mIFN-γ: mouse recombinant IFN-γ, known as the atherogenic cytokine
- Expression (mouse GM3 synthase mRNA, relative value) (mouse GM3 synthase; mIFN-γ 1 U/mL): 4
- Expression (mouse GM3 synthase mRNA, relative value) (mouse GM3 synthase; mIFN-γ 10 U/mL): 25

Molecule: Nc1ccn([C@@H]2O[C@H](COP(=O)(O)O)[C@@H](O)[C@H]2O)c(=O)n1 [CMP, cytidine mono phosphate]
- GM3 synthase activity (relative value) (human GM3 synthase [1]; CMP 0.04 mM): 1.01
- GM3 synthase activity (relative value) (human GM3 synthase [1]; CMP 0.12 mM): 0.73
- GM3 synthase activity (relative value) (human GM3 synthase [1]; CMP 0.4 mM): 0.58
- GM3 synthase activity (relative value) (human GM3 synthase [1]; CMP 1.2 mM): 0.32
- GM3 synthase activity (relative value) (human GM3 synthase [1]; CMP 4 mM): 0.28
- GM3 synthase activity (human GM3 synthase [2]; CMP 0.1 mM): 46 nmol/mg/h
- GM3 synthase activity (human GM3 synthase [2]; CMP 0.3 mM): 27 nmol/mg/h
- GM3 synthase activity (human GM3 synthase [2]; CMP 1 mM): 12 nmol/mg/h
- GM3 synthase activity (human GM3 synthase [2]; CMP 3 mM): 5 nmol/mg/h
- GM3 synthase activity (human GM3 synthase [2]; CMP 10 mM): 7 nmol/mg/h

Molecule: SH3: retrovirus expressing shRNA (short hairpin RNA) sequence SEQ ID NO: 6 targeting GM3 synthase (GCCAATGATTTGTTCGTTAGTGTGCTGTCCTAACGAACAAATCATTGGCTTTTT)
- GM3 synthase activity (relative value) (GM3 synthase): 0.5
- cholesterol transporting activity (relative value) (RAW264.7 strain): 1.1

B1: hIFN-γ: human recombinant IFN-γ (protein, UniProt P01579 24-161, looked up)
Interferon gamma: QDPYVKEAENLKKYFNAGHSDVADNGTLFLGILKNWKEESDRKIMQSQIVSFYFKLFKNFKDDQSIQKSVETIKEDMNVKFFNSNKKKRDDFEKLTNYSVTDLNVQRKAIHELIQVMAELSPAAKTGKRKRSQMLFRG
- Expression level (human GM3 synthase mRNA, relative value) (human GM3 synthase [3]; hIFN-γ 10 ng/mL): 2.6
- Expression level (human GM3 synthase mRNA, relative value) (human GM3 synthase [3]; hIFN-γ 30 ng/mL): 2.4

— patent publication US20090082303A1, “DRUG FOR PREVENTING AND TREATING ATHEROSCLEROSIS” (Takeda Pharmaceutical Company Limited, priority 2004, published 2009)
